Measured values taken from PMC10224329, “Design, Synthesis, and Antiproliferative Activity of Benzopyran-4-One-Isoxazole Hybrid Compounds” (Molecules, 2023).

What was measured:
Assay in all cases: Protein kinase assay (Reaction Biology)
Type in all cases: biochemical
c-Kit = biological target: T1, c-Kit (Homo sapiens, UniProt P10721); details: duplicate, 200 μM ATP, read-out: % Enzyme Activity (Relative to DMSO Controls) c-Kit
T1 construct: purchased Reaction Biology Corporation
Procedure: (§1) Therefore, selected compound 5a was screened against several protein kinases to explore the potential of these hybrid compounds as kinase inhibitors. The screening of compound 5a was performed on a panel of 9 kinases, viz., ABL1, c-Kit, c-Src, CDK2/cyclin A1, CSK, EGFR, mTOR/FRAP1, p38a/MAPK14, PKCa, and PI3K, at a dose of 20 μM. The respective positive controls were used for each kinase, and the kinase reaction was performed at 200 μM ATP concentration for all the kinases except for PI3K, which was performed at 10 µM ATP (Table 2). […] It appeared that compound 5a containing a 3-position substitution with an isoxazole ring and a 4-position with a carbonyl group has a detrimental effect on kinase inhibition. Previously 3-substituted benzopyran compound with a short alkyl chain of urea (NH-CO-NH-Et/Me/iPr) was reported with Abl kinase inhibitory activity in the range of 4–27 μM [36]. […] Due to prominent antiproliferative activity, these compounds may have some other targets for anticancer activity.
(§2) Compound 5a was tested at a single dose of 20 μM against 9 kinases, viz., Abl1, c-Kit, c-Src, CDK2/cyclin A1, CSK, EGFR, mTOR/FRAP1, p38a/MAPK14, PKCa, and PI3K using our previously reported protocol in duplicate by Reaction Biology Corporation. The respective positive controls, e.g., staurosporine for all the kinases, except SB202190 for P38a/MAP14 and P1-103 for mTOR/FRAP1, were used, and the kinase reaction was performed at 200 μM ATP concentration for all the kinases except for PI3K, which was performed at 10 µM ATP.

CDK2/cyclin A1 = biological target: T2, CDK2/cyclin A1 (Homo sapiens, UniProt P24941); details: duplicate, 200 μM ATP, read-out: % Enzyme Activity (Relative to DMSO Controls) CDK2/cyclin A1
T2 construct: purchased Reaction Biology Corporation
Procedure: as §1, §2

PKCa = biological target: T3, PKCa (Homo sapiens, UniProt P17252); details: duplicate, 200 μM ATP, read-out: % Enzyme Activity (Relative to DMSO Controls) PKCa
T3 construct: purchased Reaction Biology Corporation
Procedure: as §1, §2

CSK = biological target: T4, CSK (Homo sapiens, UniProt P41240); details: duplicate, 200 μM ATP, read-out: % Enzyme Activity (Relative to DMSO Controls) CSK
T4 construct: purchased Reaction Biology Corporation
Procedure: as §1, §2

EGFR = biological target: T5, EGFR (Homo sapiens, UniProt P00533); details: duplicate, 200 μM ATP, read-out: % Enzyme Activity (Relative to DMSO Controls) EGFR
T5 construct: purchased Reaction Biology Corporation
Procedure: as §1, §2

ABL1 = biological target: T6, ABL1 (Homo sapiens, UniProt P00519); details: duplicate, 200 μM ATP, read-out: % Enzyme Activity (Relative to DMSO Controls) ABL1
T6 construct: purchased Reaction Biology Corporation
Procedure: as §1, §2

T1 sequence (P10721 26-976): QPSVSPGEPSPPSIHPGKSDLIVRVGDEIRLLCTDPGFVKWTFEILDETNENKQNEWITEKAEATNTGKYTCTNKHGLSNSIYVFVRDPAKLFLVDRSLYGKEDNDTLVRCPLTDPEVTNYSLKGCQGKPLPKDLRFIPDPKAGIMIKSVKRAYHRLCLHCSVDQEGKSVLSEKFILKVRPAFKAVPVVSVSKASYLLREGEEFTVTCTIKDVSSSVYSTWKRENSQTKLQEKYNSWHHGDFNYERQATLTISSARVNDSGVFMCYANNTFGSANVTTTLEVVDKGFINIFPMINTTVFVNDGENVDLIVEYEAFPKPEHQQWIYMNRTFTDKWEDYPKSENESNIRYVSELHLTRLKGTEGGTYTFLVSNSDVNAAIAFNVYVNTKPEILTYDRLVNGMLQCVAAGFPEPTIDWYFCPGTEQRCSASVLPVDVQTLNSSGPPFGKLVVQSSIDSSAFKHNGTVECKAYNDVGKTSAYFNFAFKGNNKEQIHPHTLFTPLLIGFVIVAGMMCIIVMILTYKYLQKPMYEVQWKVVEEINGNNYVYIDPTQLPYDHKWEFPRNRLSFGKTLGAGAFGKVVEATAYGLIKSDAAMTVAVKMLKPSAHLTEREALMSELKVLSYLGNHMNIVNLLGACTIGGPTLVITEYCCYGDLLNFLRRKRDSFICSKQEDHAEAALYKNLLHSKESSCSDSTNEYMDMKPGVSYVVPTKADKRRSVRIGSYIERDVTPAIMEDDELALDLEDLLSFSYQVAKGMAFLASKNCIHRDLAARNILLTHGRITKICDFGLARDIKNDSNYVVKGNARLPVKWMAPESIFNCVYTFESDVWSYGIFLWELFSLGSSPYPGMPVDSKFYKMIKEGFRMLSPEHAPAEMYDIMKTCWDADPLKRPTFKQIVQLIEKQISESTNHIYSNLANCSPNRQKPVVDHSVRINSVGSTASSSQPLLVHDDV
T5 sequence (P00533 25-1210): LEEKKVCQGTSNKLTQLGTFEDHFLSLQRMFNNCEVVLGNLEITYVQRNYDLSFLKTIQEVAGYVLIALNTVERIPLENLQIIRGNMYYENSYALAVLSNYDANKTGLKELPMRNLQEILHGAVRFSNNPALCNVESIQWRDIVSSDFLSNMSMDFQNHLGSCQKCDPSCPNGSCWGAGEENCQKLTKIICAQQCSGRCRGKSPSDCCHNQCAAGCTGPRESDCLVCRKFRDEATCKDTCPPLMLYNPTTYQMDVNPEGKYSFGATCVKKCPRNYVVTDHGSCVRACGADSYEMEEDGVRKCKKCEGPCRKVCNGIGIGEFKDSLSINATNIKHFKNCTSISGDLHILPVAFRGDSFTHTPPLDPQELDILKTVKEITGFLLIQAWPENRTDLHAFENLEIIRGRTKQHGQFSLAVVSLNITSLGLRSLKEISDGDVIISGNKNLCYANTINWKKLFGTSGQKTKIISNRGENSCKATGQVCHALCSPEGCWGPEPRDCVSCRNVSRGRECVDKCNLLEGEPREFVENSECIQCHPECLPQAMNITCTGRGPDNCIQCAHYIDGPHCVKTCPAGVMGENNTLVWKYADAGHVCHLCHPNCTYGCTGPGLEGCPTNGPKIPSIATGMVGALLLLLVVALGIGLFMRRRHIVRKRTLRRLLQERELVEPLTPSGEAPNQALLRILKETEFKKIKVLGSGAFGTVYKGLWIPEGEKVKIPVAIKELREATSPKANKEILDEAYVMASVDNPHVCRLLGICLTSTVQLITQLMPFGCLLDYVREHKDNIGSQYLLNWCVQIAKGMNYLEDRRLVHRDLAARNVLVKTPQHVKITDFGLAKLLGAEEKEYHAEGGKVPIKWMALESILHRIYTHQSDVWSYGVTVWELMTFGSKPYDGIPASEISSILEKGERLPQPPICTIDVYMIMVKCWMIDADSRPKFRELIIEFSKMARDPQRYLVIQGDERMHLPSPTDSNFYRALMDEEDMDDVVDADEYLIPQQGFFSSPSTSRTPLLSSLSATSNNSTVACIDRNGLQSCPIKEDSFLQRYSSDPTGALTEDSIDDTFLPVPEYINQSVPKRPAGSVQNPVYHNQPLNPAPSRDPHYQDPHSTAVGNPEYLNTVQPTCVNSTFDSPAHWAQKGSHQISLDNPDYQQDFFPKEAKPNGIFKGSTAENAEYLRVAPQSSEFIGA
T6 sequence (P00519 whole entry): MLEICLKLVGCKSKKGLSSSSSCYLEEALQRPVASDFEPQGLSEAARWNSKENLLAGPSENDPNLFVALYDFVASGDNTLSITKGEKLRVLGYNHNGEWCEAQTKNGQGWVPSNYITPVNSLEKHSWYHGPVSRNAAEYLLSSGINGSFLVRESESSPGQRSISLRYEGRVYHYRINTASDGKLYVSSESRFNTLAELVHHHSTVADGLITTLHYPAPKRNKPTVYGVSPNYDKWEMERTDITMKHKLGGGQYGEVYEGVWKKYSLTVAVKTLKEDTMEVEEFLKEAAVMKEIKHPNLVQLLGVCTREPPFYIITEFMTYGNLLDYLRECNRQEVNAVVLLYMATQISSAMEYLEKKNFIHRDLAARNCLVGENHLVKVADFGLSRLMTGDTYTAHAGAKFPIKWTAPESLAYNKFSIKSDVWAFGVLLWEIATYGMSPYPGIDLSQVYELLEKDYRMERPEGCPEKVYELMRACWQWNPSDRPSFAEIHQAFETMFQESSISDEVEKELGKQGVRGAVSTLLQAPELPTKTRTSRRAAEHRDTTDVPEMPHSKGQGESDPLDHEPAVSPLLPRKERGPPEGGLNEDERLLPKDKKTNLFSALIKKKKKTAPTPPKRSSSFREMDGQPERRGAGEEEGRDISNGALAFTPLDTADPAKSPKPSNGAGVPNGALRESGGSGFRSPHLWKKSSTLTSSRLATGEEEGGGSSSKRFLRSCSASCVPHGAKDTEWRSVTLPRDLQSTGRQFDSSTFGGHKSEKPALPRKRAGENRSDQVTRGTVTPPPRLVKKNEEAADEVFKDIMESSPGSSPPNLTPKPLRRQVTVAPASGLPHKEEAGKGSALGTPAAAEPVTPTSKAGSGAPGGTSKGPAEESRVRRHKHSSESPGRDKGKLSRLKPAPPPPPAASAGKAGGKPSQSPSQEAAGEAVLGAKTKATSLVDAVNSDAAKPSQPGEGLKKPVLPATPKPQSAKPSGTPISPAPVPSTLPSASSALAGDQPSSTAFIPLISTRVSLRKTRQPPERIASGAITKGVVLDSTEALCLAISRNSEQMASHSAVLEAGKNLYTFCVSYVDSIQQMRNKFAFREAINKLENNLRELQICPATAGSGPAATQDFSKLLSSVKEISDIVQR

remaining activity at 20 µM (c-Kit): 95.3%
remaining activity at 20 µM (CDK2/cyclin A1): 105%
remaining activity at 20 µM (PKCa): 103%
remaining activity at 20 µM (CSK): 93%
remaining activity at 20 µM (EGFR): 99.8%
remaining activity at 20 µM (ABL1): 96.9%
Compound: Cc1noc(C)c1C(=O)OCc1coc2ccccc2c1=O [Compound 5a, (4-Oxo-4H-1-benzopyran-3-yl)methyl 3,5-dimethylisoxazole-4-carboxylate]
